Data: PubChem BioAssay AID2060611 (Molecular Pharmacology Branch, DTP, NCI, 2025)
Blank lines part the entries; values can stand above or below the compound they belong to.

Test system: 628569-122-R-J1-PDC complex spheroid viability
Test: Anticancer human tumor 628569-122-R-J1-PDC patient-derived head and neck squamous carcinoma cell line growth inhibition [CLK]
Settings: for IC50: curve of first compound; for viability, T/C: stronger effect = lower value
Method in brief: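 Multi-cell-type spheroids combined patient-derived tumor cells with HUVEC endothelial cells and human mesenchymal stem cells. Paired agents were dosed in half-log steps down from about clinical Cmax, or from 10 microM where Cmax was unknown.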

[1] = second compound 0.0316 µM, first compound 0.0316 µM
[2] = second compound 0.0316 µM, first compound 0.1 µM
[3] = second compound 0.0316 µM, first compound 0.316 µM
[4] = second compound 0.0316 µM, first compound 1 µM
[5] = second compound 0.0316 µM, first compound 3.16 µM
[6] = second compound 0.0316 µM, first compound 10 µM
[7] = second compound 0.1 µM, first compound 0.0316 µM
[8] = second compound 0.1 µM, first compound 0.1 µM
[9] = second compound 0.1 µM, first compound 0.316 µM
[10] = second compound 0.1 µM, first compound 1 µM
[11] = second compound 0.1 µM, first compound 3.16 µM
[12] = second compound 0.1 µM, first compound 10 µM
[13] = second compound 0.316 µM, first compound 0.0316 µM
[14] = second compound 0.316 µM, first compound 0.1 µM
[15] = second compound 0.316 µM, first compound 0.316 µM
[16] = second compound 0.316 µM, first compound 1 µM
[17] = second compound 0.316 µM, first compound 3.16 µM
[18] = second compound 0.316 µM, first compound 10 µM
[19] = second compound 1 µM, first compound 0.0316 µM
[20] = second compound 1 µM, first compound 0.1 µM
[21] = second compound 1 µM, first compound 0.316 µM
[22] = second compound 1 µM, first compound 1 µM
[23] = second compound 1 µM, first compound 3.16 µM
[24] = second compound 1 µM, first compound 10 µM
[25] = second compound 3.16 µM, first compound 0.0316 µM
[26] = second compound 3.16 µM, first compound 0.1 µM
[27] = second compound 3.16 µM, first compound 0.316 µM
[28] = second compound 3.16 µM, first compound 1 µM
[29] = second compound 3.16 µM, first compound 3.16 µM
[30] = second compound 3.16 µM, first compound 10 µM
[31] = second compound 10 µM, first compound 0.0316 µM
[32] = second compound 10 µM, first compound 0.1 µM
[33] = second compound 10 µM, first compound 0.316 µM
[34] = second compound 10 µM, first compound 1 µM
[35] = second compound 10 µM, first compound 3.16 µM
[36] = second compound 10 µM, first compound 10 µM
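Further: spheroids exposed to agents for seven days before readout.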
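Wherever viability, T/C is given: 100% = DMSO vehicle control viability.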

IC50 (second compound 0.0316 µM): < 31.6 nM
IC50 (second compound 0.1 µM): < 31.6 nM
IC50 (second compound 0.316 µM): < 31.6 nM
IC50 (second compound 1 µM): < 31.6 nM
IC50 (second compound 3.16 µM): < 31.6 nM
IC50 (second compound 10 µM): < 31.6 nM
SMILES: CC(=O)O[C@H]1C(=O)[C@@]2(C)[C@H]([C@H](OC(=O)c3ccccc3)[C@]3(O)C[C@H](OC(=O)[C@H](O)[C@@H](NC(=O)c4ccccc4)c4ccccc4)C(C)=C1C3(C)C)[C@]1(OC(C)=O)CO[C@@H]1C[C@@H]2O + CNC(=O)c1ccc(Nc2nc(OC3CCCC3)c3c(-c4ccc5nc(C)oc5c4)c[nH]c3n2)c(OC)c1
viability, T/C [1]: 34.6%
viability, T/C [2]: 33.5%
viability, T/C [3]: 36.6%
viability, T/C [4]: 35.9%
viability, T/C [5]: 36.5%
viability, T/C [6]: 59%
viability, T/C [7]: 50.4%
viability, T/C [8]: 47.4%
viability, T/C [9]: 49.6%
viability, T/C [10]: 55.5%
viability, T/C [11]: 67.9%
viability, T/C [12]: 68.4%
viability, T/C [13]: 43.1%
viability, T/C [14]: 55.3%
viability, T/C [15]: 59.7%
viability, T/C [16]: 63.9%
viability, T/C [17]: 72.9%
viability, T/C [18]: 72.9%
viability, T/C [19]: 41.4%
viability, T/C [20]: 53%
viability, T/C [21]: 55.2%
viability, T/C [22]: 57.6%
viability, T/C [23]: 57.9%
viability, T/C [24]: 68.5%
viability, T/C [25]: 44.8%
viability, T/C [26]: 51.6%
viability, T/C [27]: 56.8%
viability, T/C [28]: 56.6%
viability, T/C [29]: 60.9%
viability, T/C [30]: 64.7%
viability, T/C [31]: 41.2%
viability, T/C [32]: 47%
viability, T/C [33]: 55.3%
viability, T/C [34]: 64.2%
viability, T/C [35]: 65%
viability, T/C [36]: 69.9%

IC50 (second compound 0.0316 µM): 2010 nM
IC50 (second compound 0.1 µM): 260 nM
IC50 (second compound 0.316 µM): < 31.6 nM
IC50 (second compound 1 µM): < 31.6 nM
IC50 (second compound 3.16 µM): < 31.6 nM
IC50 (second compound 10 µM): < 31.6 nM
SMILES: COc1ccc([C@@H](O)c2cc(-c3ncnc4cc(N5CCOCC5)ccc34)c(F)cc2Cl)nn1 + CNC(=O)c1ccc(Nc2nc(OC3CCCC3)c3c(-c4ccc5nc(C)oc5c4)c[nH]c3n2)c(OC)c1
viability, T/C [1]: 83.7%
viability, T/C [2]: 80.5%
viability, T/C [3]: 78.1%
viability, T/C [4]: 61.8%
viability, T/C [5]: 42.3%
viability, T/C [6]: 35%
viability, T/C [7]: 54.5%
viability, T/C [8]: 47.7%
viability, T/C [9]: 49.6%
viability, T/C [10]: 48.4%
viability, T/C [11]: 41.9%
viability, T/C [12]: 33.8%
viability, T/C [13]: 47.5%
viability, T/C [14]: 41.4%
viability, T/C [15]: 41.7%
viability, T/C [16]: 39%
viability, T/C [17]: 39.4%
viability, T/C [18]: 29.7%
viability, T/C [19]: 46.8%
viability, T/C [20]: 42.9%
viability, T/C [21]: 41.7%
viability, T/C [22]: 29.6%
viability, T/C [23]: 36.4%
viability, T/C [24]: 31.4%
viability, T/C [25]: 33.2%
viability, T/C [26]: 39.5%
viability, T/C [27]: 34.4%
viability, T/C [28]: 37.4%
viability, T/C [29]: 38.4%
viability, T/C [30]: 21%
viability, T/C [31]: 45.1%
viability, T/C [32]: 41.7%
viability, T/C [33]: 32.2%
viability, T/C [34]: 36.1%
viability, T/C [35]: 27.8%
viability, T/C [36]: 18.9%

IC50 (second compound 0.0316 µM): 479 nM
IC50 (second compound 0.1 µM): 446 nM
IC50 (second compound 0.316 µM): 373 nM
IC50 (second compound 1 µM): 31.6 nM
IC50 (second compound 3.16 µM): < 31.6 nM
IC50 (second compound 10 µM): < 31.6 nM
SMILES: COc1cccc2c1C(=O)c1c(O)c3c(c(O)c1C2=O)CC(O)(C(=O)CO)CC3OC1CC(N)C(O)C(C)O1 (stereo unspecified) + CNC(=O)c1ccc(Nc2nc(OC3CCCC3)c3c(-c4ccc5nc(C)oc5c4)c[nH]c3n2)c(OC)c1
viability, T/C [1]: 65.1%
viability, T/C [2]: 56.3%
viability, T/C [3]: 88.3%
viability, T/C [4]: 12.9%
viability, T/C [5]: 19.5%
viability, T/C [6]: 11.4%
viability, T/C [7]: 49.7%
viability, T/C [8]: 62.8%
viability, T/C [9]: 91.8%
viability, T/C [10]: 5.99%
viability, T/C [11]: 11.4%
viability, T/C [12]: 5.02%
viability, T/C [13]: 47%
viability, T/C [14]: 47.1%
viability, T/C [15]: 75.8%
viability, T/C [16]: 9.78%
viability, T/C [17]: 17.6%
viability, T/C [18]: 4.53%
viability, T/C [19]: 39.9%
viability, T/C [20]: 47.9%
viability, T/C [21]: 58.3%
viability, T/C [22]: 7.25%
viability, T/C [23]: 14.1%
viability, T/C [24]: 5.15%
viability, T/C [25]: 43.2%
viability, T/C [26]: 52.5%
viability, T/C [27]: 50.3%
viability, T/C [28]: 9.3%
viability, T/C [29]: 10.3%
viability, T/C [30]: 5.46%
viability, T/C [31]: 41%
viability, T/C [32]: 48.8%
viability, T/C [33]: 47.9%
viability, T/C [34]: 6.06%
viability, T/C [35]: 11.8%
viability, T/C [36]: 6.29%
